From ChEMBL document CHEMBL5370608, “Selective and Bioavailable HDAC6 2-(Difluoromethyl)-1,3,4-oxadiazole Substrate Inhibitors and Modeling of Their Bioactivation Mechanism” (J Med Chem, 2023)

Assays:
THP-1 = assay: Cytotoxicity against human THP-1 cells assessed as reduction in cell viability by alamar blue staining based assay; format: functional
Histone deacetylase 8 = target: T1, Histone deacetylase 8 (Homo sapiens, UniProt Q9BY41); assay: Inhibition of human recombinant HDAC8 incubated for 60 mins by fluorimetry analysis
T1 sequence (Q9BY41 whole entry): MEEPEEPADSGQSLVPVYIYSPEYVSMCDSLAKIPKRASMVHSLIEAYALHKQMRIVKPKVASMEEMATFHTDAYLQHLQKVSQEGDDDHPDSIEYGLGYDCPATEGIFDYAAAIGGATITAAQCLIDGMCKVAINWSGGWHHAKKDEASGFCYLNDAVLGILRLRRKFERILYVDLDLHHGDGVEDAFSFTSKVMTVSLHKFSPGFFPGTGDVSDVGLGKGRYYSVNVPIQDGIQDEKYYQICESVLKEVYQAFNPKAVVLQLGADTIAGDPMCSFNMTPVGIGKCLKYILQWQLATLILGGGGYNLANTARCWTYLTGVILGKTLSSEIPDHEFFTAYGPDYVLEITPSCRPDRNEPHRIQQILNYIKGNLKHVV

Histone deacetylase 7 = target: T2, Histone deacetylase 7 (Homo sapiens, UniProt Q8WUI4); assay: Inhibition of human recombinant HDAC7 incubated for 30 mins by fluorimetry analysis
T2 sequence (Q8WUI4 whole entry): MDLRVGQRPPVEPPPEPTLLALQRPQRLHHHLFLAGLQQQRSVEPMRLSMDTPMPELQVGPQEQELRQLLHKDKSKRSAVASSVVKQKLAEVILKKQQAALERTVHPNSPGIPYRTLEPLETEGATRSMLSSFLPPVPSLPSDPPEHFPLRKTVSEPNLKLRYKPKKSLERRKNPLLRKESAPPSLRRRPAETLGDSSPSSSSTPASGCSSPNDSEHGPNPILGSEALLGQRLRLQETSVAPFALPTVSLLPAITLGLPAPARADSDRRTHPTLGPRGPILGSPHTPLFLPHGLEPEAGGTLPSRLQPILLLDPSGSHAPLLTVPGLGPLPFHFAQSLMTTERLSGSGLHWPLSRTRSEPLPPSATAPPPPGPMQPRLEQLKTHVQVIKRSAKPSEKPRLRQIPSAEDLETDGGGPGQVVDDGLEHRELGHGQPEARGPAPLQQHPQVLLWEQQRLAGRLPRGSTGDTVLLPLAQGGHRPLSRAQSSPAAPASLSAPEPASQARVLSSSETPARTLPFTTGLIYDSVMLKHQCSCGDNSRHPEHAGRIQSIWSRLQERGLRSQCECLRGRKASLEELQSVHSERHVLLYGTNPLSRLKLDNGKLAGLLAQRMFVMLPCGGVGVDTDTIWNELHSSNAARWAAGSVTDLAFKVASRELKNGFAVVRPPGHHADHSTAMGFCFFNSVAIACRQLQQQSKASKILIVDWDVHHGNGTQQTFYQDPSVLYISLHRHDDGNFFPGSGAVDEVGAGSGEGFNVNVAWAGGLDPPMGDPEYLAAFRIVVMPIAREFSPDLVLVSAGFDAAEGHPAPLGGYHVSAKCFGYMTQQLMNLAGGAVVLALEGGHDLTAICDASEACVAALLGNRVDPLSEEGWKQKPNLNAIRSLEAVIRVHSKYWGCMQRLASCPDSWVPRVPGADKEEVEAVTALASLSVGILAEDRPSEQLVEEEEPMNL

Histone deacetylase 9 = Histone deacetylase 9 (Homo sapiens, UniProt Q9UKV0); assay: Inhibition of human recombinant HDAC9 incubated for 30 mins by fluorimetry analysis
Sequence of Histone deacetylase 9 (Q9UKV0 whole entry): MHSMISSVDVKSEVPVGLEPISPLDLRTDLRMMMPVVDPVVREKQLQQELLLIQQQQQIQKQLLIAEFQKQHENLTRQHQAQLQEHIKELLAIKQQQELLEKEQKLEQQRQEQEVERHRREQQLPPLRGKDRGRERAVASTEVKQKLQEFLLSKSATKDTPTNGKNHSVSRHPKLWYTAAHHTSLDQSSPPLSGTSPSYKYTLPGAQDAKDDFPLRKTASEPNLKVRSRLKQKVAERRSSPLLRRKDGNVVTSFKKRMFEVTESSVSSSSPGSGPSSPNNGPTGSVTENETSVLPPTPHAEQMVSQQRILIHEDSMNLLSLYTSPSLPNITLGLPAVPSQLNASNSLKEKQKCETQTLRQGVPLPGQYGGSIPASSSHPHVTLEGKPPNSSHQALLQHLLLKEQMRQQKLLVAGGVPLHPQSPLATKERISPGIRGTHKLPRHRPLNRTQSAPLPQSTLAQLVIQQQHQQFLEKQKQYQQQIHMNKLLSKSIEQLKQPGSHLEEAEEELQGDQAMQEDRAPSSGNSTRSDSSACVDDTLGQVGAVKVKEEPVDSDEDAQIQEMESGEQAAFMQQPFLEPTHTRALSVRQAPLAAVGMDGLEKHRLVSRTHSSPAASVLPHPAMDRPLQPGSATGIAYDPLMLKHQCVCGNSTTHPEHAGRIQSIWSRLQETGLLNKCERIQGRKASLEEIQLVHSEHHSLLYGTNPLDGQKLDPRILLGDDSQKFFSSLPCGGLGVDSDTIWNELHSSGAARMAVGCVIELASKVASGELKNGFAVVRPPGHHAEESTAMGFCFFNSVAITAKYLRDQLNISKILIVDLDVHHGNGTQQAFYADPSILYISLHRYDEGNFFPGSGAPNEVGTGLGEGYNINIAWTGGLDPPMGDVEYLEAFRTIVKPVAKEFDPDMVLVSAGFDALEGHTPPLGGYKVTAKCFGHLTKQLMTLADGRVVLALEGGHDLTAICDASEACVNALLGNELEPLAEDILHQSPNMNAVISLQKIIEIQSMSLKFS

[1] = target: T3, Polyamine deacetylase HDAC10 (Homo sapiens, UniProt Q969S8); assay: Inhibition of human recombinant HDAC10 incubated for 45 mins by fluorimetry analysis
T3 sequence (Q969S8 whole entry): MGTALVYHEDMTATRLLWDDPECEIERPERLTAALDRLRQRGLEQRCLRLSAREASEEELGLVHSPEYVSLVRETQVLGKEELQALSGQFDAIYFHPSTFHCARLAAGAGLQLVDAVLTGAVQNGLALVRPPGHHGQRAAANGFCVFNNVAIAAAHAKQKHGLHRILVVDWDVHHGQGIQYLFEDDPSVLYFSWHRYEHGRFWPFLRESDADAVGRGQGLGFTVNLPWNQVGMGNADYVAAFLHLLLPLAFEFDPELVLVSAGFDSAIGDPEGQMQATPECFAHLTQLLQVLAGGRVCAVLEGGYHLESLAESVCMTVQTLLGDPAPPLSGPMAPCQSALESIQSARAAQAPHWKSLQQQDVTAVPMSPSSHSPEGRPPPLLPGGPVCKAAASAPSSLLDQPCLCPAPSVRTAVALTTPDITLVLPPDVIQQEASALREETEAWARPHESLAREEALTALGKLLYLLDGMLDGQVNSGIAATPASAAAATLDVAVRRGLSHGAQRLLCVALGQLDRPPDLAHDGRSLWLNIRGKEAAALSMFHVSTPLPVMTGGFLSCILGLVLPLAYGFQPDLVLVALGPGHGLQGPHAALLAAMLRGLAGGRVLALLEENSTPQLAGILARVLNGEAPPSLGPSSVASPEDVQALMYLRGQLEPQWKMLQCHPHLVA

Structure (SMILES) | IC50 (THP-1; read-out: IC50) [µM] | IC50 (THP-1; read-out: pIC50 (converted)) [µM] | IC50 (Histone deacetylase 8) [µM] | IC50 (Histone deacetylase 7) [µM] | IC50 (Histone deacetylase 9) [µM] | IC50 [1] [µM]
CS(=O)(=O)NCC(Nc1ncc(-c2nnc(C(F)F)o2)cn1)c1ccc(OC(F)(F)F)cc1 (stereo unspecified) | 126 | 126 | > 100 | 30 | 19 | > 100
FC(F)c1nnc(-c2ccc(Cn3nnc(-c4ccccn4)n3)nc2)o1 | – | > 251 | > 100 | > 100 | > 100 | > 100
O=C(NO)c1cnc(NC2(c3ccccc3)CCC(F)(F)CC2)nc1 | 94 | 100 | 16 | 6.5 | 19 | 18
COc1ccccc1-c1nnn(Cc2ccc(-c3nnc(C(F)F)o3)cn2)n1 | – | – | > 100 | > 100 | > 100 | > 100
